From article PMC6353801, “Enhanced Anti-diabetic Effect of Berberine Combined With Timosaponin B2 in Goto-Kakizaki Rats, Associated With Increased Variety and Exposure of Effective Substances Through Intestinal Absorption” (Frontiers in Pharmacology, 2019)

What was measured:
[1] = Liver distribution in Wistar rats; conditions: liver; for increase in Cmax on co-administration vs single treatment / exposure (AUC) of metabolite as share of the exposure of BBR / AUC ± SE / Cmax / Tmax / increase in AUC on co-administration vs single treatment: Wistar rats; for AUC ± SE / Cmax / half-life / Tmax: n = 5; for Cmax / half-life / Tmax: male, Wistar, rat, po; for Cmax: Cmax ± SE; for half-life: T1/2, Wistar rats
[2] = test system: GK rats; experiment: NFBG and FBG levels in GK rats, 6-week oral treatment; format: in vivo, rat; conditions: during 6-week treatment, TB-2 33.3, BBR 66.7, TB-2+BBR 100, metformin 200 mg/kg/day
Description: (§1) Four-week-old male GK rats were fed a high-fat diet, and age-matched non-diabetic Wistar rats were fed standard chow as the control group. Under these dietary conditions, blood glucose was estimated each week for 7 weeks in 12-h fasted rats using a portable glucometer (One Touch Sure Step Meter, Johnson & Johnson, United States) by drawing the blood from the tail vein. GK rats with fasting blood glucose levels (FBG) above 16.7 mM were considered as diabetic rats, and only uniformly diabetic rats were used in this study. […] All the drugs were suspended in 0.5% carboxymethylcellulose sodium (CMC-Na) solution for oral gavage (10 ml/kg) once per day (at 9:00) for 6 weeks. Simultaneously, the Wistar and vehicle groups received vehicle over the treatment period. Food consumption and body weight were measured every week throughout the experimental periods. Non-fasting blood glucose (NFBG) levels were determined by collecting blood samples from the tail vein (at 9:00), and FBG levels were determined after a 6-h fast (at 15:00) on days 0, 7, 14, 21, and 42. On day 28, an oral glucose tolerance test (OGTT) was performed after an overnight fast. […] On day 42, the rats were anesthetized with urethane (1.4 g/kg, dissolved in saline) after an overnight fast and were sacrificed to collect the liver, kidney, heart, and spleen. The organs were weighed after washing with saline and drying to calculate the organ coefficient, namely, the ratio between the weight of organs and the body in each rat.

[3] = test system: GK rats; experiment: Oral glucose tolerance test (OGTT) in GK rats on day 28; format: in vivo, rat; conditions: after 4 weeks of treatment, glucose 2 g/kg oral
Description: as §1

[4] = Body weight, food intake, organ coefficients and side effects in GK rats; format: in vivo, rat; conditions: day 42
Description: as §1

[5] = test system: primary rat hepatocytes; experiment: Hepatic metabolism in primary hepatocytes; conditions: 3 h
[6] = single oral BBR 66.7 mg/kg alone
[7] = single oral BBR+TB-2 (66.7+33.3 mg/kg)
[8] = single treatment (On TB-2 treatments)
[9] = 33.3 mg/kg, single oral BBR+TB-2 (66.7+33.3 mg/kg)
[10] = 66.7 mg/kg, single oral BBR 66.7 mg/kg alone

Structure (SMILES) | increase in Cmax on co-administration vs single treatment [1] [%] | exposure (AUC) of metabolite as share of the exposure of BBR ([1]; TB-2+BBR treatments) [%] | AUC ± SE [1, 6] [h ∗ ng/g] | AUC ± SE [1, 7] | exposure (AUC) of metabolite as share of the exposure of BBR [1, 8] [%] | Cmax [1, 9] [ng/g] | half-life [1, 9] [h] | Tmax [1, 9] [h] | Cmax [1, 10] [ng/g] | half-life [1, 10] [h] | Tmax [1, 10] [h] | FBG levels compared with the vehicle group (in words) [2] | NFBG levels compared with the vehicle group (in words) [2] | decrease in the AUC of blood glucose in OGTT vs vehicle [3] [%] | decrease of blood glucose levels in OGTT at 30 min vs vehicle [3] [%] | effect on organ coefficients (liver and kidney) vs vehicle [4] | increase in AUC on co-administration vs single treatment [1] [%] | metabolism after incubation (in words) ([5]; midazolam 20 μM, TB-2 1 μM) | effect on BBR metabolism and the generation of M2–M5 ([5]; BBR 1 μM, ABT 1 mM, TB-2 0.1 to 30 μM)
COc1c(O)ccc2cc3[n+](cc12)CCc1cc2c(cc1-3)OCO2 [M2, Thalifendine] | 117 | 144 | 5935.8 ± 164.9 | 6651.2 ± 469.0 h ∗ ng/g | 182 | 1660 ± 255 | 5 | 2 | 766 ± 54.3 | 6.8 | 4 | – | – | – | – | – | – | – | –
CN(C)C(=N)N=C(N)N [metformin] | – | – | – | – | – | – | – | – | – | – | – | significantly decreased | did not significantly decrease | 11.3 | 30 | no effect | – | – | –
COc1cc2c(cc1O)CC[n+]1cc3c(OC)c(OC)ccc3cc1-2 [M4, jatrorrhizine] | 156 | 15 | 527.5 ± 25.0 | 690.8 ± 59.6^∗ h ∗ ng/g | 16 | 200 ± 33.7 | 7 | 2 | 78.2 ± 10.7 | 9.7 | 2 | – | – | – | – | – | 31 | – | –
Cc1ncc2n1-c1ccc(Cl)cc1C(c1ccccc1F)=NC2 [midazolam] | – | – | – | – | – | – | – | – | – | – | – | – | – | – | – | – | – | significantly metabolized | –
COc1ccc2cc3[n+](cc2c1OC)CCc1cc(O)c(O)cc1-3 [M3, demethyleneberberine] | 174 | 12 | 234.5 ± 29.3 | 572.9 ± 34.7^∗∗∗ h ∗ ng/g | 7 | 106 ± 18.2 | 6.2 | 2 | 38.8 ± 5.6 | 18.5 | 2 | – | – | – | – | – | 144 | – | –
COc1cc2c(cc1O)-c1cc3ccc(OC)c(OC)c3c[n+]1CC2 [M5, columbamine] | – | 11 | 362.8 ± 18.7 | 489.2 ± 59.2^∗ h ∗ ng/g | 11 | 184 ± 38.4 | 6 | 2 | 89.4 ± 15.6 | 9.5 | 2 | – | – | – | – | – | 35 | – | –
Nn1nnc2ccccc21 [ABT, 1-aminobenzotriazole] | – | – | – | – | – | – | – | – | – | – | – | – | – | – | – | – | – | – | completely abrogated
